What was measured:
Canis familiaris [1] = test: Compound was evaluated for protection against cisplatin-induced emesis by measuring number of retches in dogs administered intravenously at 0.1 mg/kg.; type: functional, Canis lupus familiaris; settings: route intravenous
Canis familiaris [2] = test: Compound was evaluated for protection against cisplatin-induced emesis by measuring number of retches in dogs administered perorally at 1.0 mg/kg; type: functional, Canis lupus familiaris; settings: route oral
[3] = Compound was evaluated for protection against cisplatin-induced emesis by measuring number of retches in ferrets administered perorally at 1.0 mg/kg; type: functional, Mustela putorius furo; settings: route oral
Mustela putorius furo [4] = test: Compound was evaluated for number of emetic episodes in ferrets administered perorally at 1.0 mg/kg; type: functional; settings: route oral
[5] = Compound was evaluated for protection against cisplatin-induced emesis by measuring number of retches in ferrets administered perorally at 0.3 mg/kg; type: functional, Mustela putorius furo; settings: route oral
[6] = Compound was evaluated for protection against cisplatin-induced emesis by measuring number of retches in ferrets administered perorally at 0.1 mg/kg; type: functional, Mustela putorius furo; settings: route oral
Rattus norvegicus = test: Inhibitory activity against Bezold-jarisch functional assay, inducing a transient bradycardia upon intravenous administration of 5-hydroxytryptamine-(10 ug/kg) in anesthetized rats.; settings: read-out: ID50 (the source's name)
Canis familiaris [7] = test: Compound was evaluated for protection against cisplatin-induced emesis by measuring number of emetic episodes in dogs administered intravenously at 0.3 mg/kg; type: functional, Canis lupus familiaris; settings: route intravenous
Canis familiaris [8] = test: No. of emetic episodes in dogs when administered perorally at 3.0 mg/kg; type: functional, Canis lupus familiaris; settings: route oral
Canis familiaris [9] = test: Compound was evaluated for protection against cisplatin-induced emesis by measuring number of retches in dogs administered intravenously at 0.03 mg/kg; type: functional, Canis lupus familiaris; settings: route intravenous
Canis familiaris [10] = test: Compound was evaluated for protection against cisplatin-induced emesis by measuring number of retches in dogs administered perorally at 0.3 mg/kg; type: functional, Canis lupus familiaris; settings: route oral
[11] = Compound was evaluated for number of emetic episodes in ferrets administered intravenously at 0.1 mg/kg; type: functional, Mustela putorius furo; settings: route intravenous
Mustela putorius furo [12] = test: Compound was evaluated for number of emetic episodes in ferrets administered perorally at 0.3 mg/kg; type: functional; settings: route oral
Canis familiaris [13] = test: Compound was evaluated for protection against cisplatin-induced emesis by measuring number of emetic episodes in dogs administered perorally at 1.0 mg/kg; type: functional, Canis lupus familiaris; settings: route oral
Canis familiaris [14] = test: Compound was evaluated for protection against cisplatin-induced emesis by measuring number of emetic episodes in dogs administered perorally at 0.3 mg/kg; type: functional, Canis lupus familiaris; settings: route oral
[15] = Compound was evaluated for number of emetic episodes in ferrets administered intravenously at 1.0 mg/kg; type: functional, Mustela putorius furo; settings: route intravenous
Canis familiaris [16] = test: Compound was evaluated for protection against cisplatin-induced emesis by measuring number of retches in dogs administered intravenously at 0.3 mg/kg; type: functional, Canis lupus familiaris; settings: route intravenous
Mustela putorius furo [17] = test: Compound was evaluated for number of emetic episodes in ferrets administered perorally at 0.1 mg/kg; type: functional; settings: route oral
Canis familiaris [18] = test: Compound was evaluated for protection against cisplatin-induced emesis by measuring number of retches in dogs administered perorally at 3.0 mg/kg; type: functional, Canis lupus familiaris; settings: route oral
Canis familiaris [19] = test: Compound was evaluated for protection against cisplatin-induced emesis by measuring number of emetic episodes in dogs administered intravenously at 0.1 mg/kg; type: functional, Canis lupus familiaris; settings: route intravenous
Mus musculus = test: Acute lethal toxicity in mouse at 8.4 mg/kg when administered intravenously; value = 5/10; type: organism-based; design: dose 8.4 mg/kg, route intravenous; settings: in vivo, iv
[20] = Compound was evaluated for number of emetic episodes in ferrets administered intravenously at 0.3 mg/kg; type: functional, Mustela putorius furo; settings: route intravenous
Canis familiaris [21] = test: Compound was evaluated for protection against cisplatin-induced emesis by measuring number of emetic episodes in dogs administered intravenously at 0.03 mg/kg; type: functional, Canis lupus familiaris; settings: route intravenous
[22] = Compound was evaluated for protection against cisplatin-induced emesis by measuring number of retches in ferrets administered intravenously at 0.3 mg/kg.; type: functional, Mustela putorius furo; settings: route intravenous
[23] = Compound was evaluated for protection against cisplatin-induced emesis by measuring number of emetic episodes in ferrets administered perorally at 0.3 mg/kg.; type: functional, Mustela putorius furo; settings: route oral
Canis familiaris [24] = test: Compound was evaluated for protection against cisplatin-induced emesis by measuring number of emetic episodes in dogs administered intravenously at 0.3 mg/kg.; type: functional, Canis lupus familiaris; settings: route intravenous
Canis familiaris [25] = test: Compound was evaluated for protection against cisplatin-induced emesis by measuring number of emetic episodes in dogs administered intravenously at 0.1 mg/kg.; type: functional, Canis lupus familiaris; settings: route intravenous
Canis familiaris [26] = test: Compound was evaluated for protection against cisplatin-induced emesis by measuring number of emetic episodes in dogs administered perorally at 0.3 mg/kg.; type: functional, Canis lupus familiaris; settings: route oral
[27] = Compound was evaluated for protection against cisplatin-induced emesis by measuring number of emetic episodes in ferrets administered perorally at 0.1 mg/kg.; type: functional, Mustela putorius furo; settings: route oral
Canis familiaris [28] = test: Compound was evaluated for protection against cisplatin-induced emesis by measuring number of emetic episodes in dogs administered intravenously at 0.03 mg/kg.; type: functional, Canis lupus familiaris; settings: route intravenous
[29] = Compound was evaluated for number of emetic episodes in ferrets administered intravenously at 0.01 mg/kg.; type: functional, Mustela putorius furo; settings: route intravenous
Canis familiaris [30] = test: Compound was evaluated for protection against cisplatin-induced emesis by measuring number of retches in dogs administered intravenously at 0.03 mg/kg.; type: functional, Canis lupus familiaris; settings: route intravenous
Canis familiaris [31] = test: Compound was evaluated for protection against cisplatin-induced emesis by measuring number of emetic episodes in dogs administered perorally at 0.1 mg/kg.; type: functional, Canis lupus familiaris; settings: route oral
[32] = Compound was evaluated for protection against cisplatin-induced emesis by measuring number of emetic episodes in ferrets administered intravenously at 0.1 mg/kg.; type: functional, Mustela putorius furo; settings: route intravenous
[33] = Compound was evaluated for protection against cisplatin-induced emesis by measuring number of retches in ferrets administered intravenously at 0.03 mg/kg.; type: functional, Mustela putorius furo; settings: route intravenous
[34] = Compound was evaluated for protection against cisplatin-induced emesis by measuring number of retches in ferrets administered perorally at 0.1 mg/kg.; type: functional, Mustela putorius furo; settings: route oral
Canis familiaris [35] = test: Compound was evaluated for protection against cisplatin-induced emesis by measuring number of retches in dogs administered perorally at 1.0 mg/kg.; type: functional, Canis lupus familiaris; settings: route oral
[36] = Compound was evaluated for protection against cisplatin-induced emesis by measuring number of retches in ferrets administered perorally at 0.3 mg/kg.; type: functional, Mustela putorius furo; settings: route oral
Canis familiaris [37] = test: Compound was evaluated for number of retches in dogs administered perorally at 0.3 mg/kg.; type: functional, Canis lupus familiaris; settings: route oral
[38] = Compound was evaluated for protection against cisplatin-induced emesis by measuring number of emetic episodes in ferrets administered intravenously at 0.03 mg/kg.; type: functional, Mustela putorius furo; settings: route intravenous
[39] = Compound was evaluated for protection against cisplatin-induced emesis by measuring number of emetic episodes in ferrets administered intravenously at 0.3 mg/kg.; type: functional, Mustela putorius furo; settings: route intravenous
[40] = Compound was evaluated for protection against cisplatin-induced emesis by measuring number of emetic episodes in ferrets administered perorally at 1.0 mg/kg.; type: functional, Mustela putorius furo; settings: route oral
Canis familiaris [41] = test: Compound was evaluated for protection against cisplatin-induced emesis by measuring number of retches in dogs administered perorally at 0.1 mg/kg.; type: functional, Canis lupus familiaris; settings: route oral
[42] = Compound was evaluated for protection against cisplatin-induced emesis by measuring number of retches in ferrets administered perorally at 1.0 mg/kg.; type: functional, Mustela putorius furo; settings: route oral
Canis familiaris [43] = test: Compound was evaluated for protection against cisplatin-induced emesis by measuring number of emetic episodes in dogs administered perorally at 1.0 mg/kg.; type: functional, Canis lupus familiaris; settings: route oral
[44] = Compound was evaluated for protection against cisplatin-induced emesis by measuring number of retches in ferrets administered intravenously at 0.1 mg/kg.; type: functional, Mustela putorius furo; settings: route intravenous
[45] = Compound was evaluated for protection against cisplatin-induced emesis by measuring number of retches in ferrets administered intravenously at 0.01 mg/kg.; type: functional, Mustela putorius furo; settings: route intravenous
Canis familiaris [46] = test: Compound was evaluated for protection against cisplatin-induced emesis by measuring number of retches in dogs administered intravenously at 0.3 mg/kg.; type: functional, Canis lupus familiaris; settings: route intravenous

Work on Cc1nccn1CC1CCc2c(c3ccccc3n2C)C1=O (stereo not drawn) [ONDANSETRON] yielded a No. of retches (Canis familiaris [1]) of 9, a No. of retches (Canis familiaris [2]) of 29.8 and a No. of retches [3] of 39.5. For the same molecule, the “No. of emetic episodes” value (Mustela putorius furo [4]) was 2.3, the No. of retches [5] was 84.8 and the No. of retches [6] was 125.3. For the same molecule, the ED50 (Rattus norvegicus) was 0.86 µg/kg, the “No. of emetic episodes” value (Canis familiaris [7]) was 4.1 and the “No. of emetic episodes” value (Canis familiaris [8]) was 2. For the same molecule, the No. of retches (Canis familiaris [9]) was 118.8, the No. of retches (Canis familiaris [10]) was 112.8 and the “No. of emetic episodes” value [11] was 6.3. The No. of retches [11] was 114, the “No. of emetic episodes” value (Mustela putorius furo [12]) was 6.3 and the “No. of emetic episodes” value (Canis familiaris [13]) was 2.8. For the same molecule, the “No. of emetic episodes” value (Canis familiaris [14]) was 9, the “No. of emetic episodes” value [15] was 0 and the No. of retches [15] was 2.5. For the same molecule, the No. of retches (Canis familiaris [16]) was 35.4, the “No. of emetic episodes” value (Mustela putorius furo [17]) was 8.5 and the No. of retches (Canis familiaris [18]) was 22.8. The “No. of emetic episodes” value (Canis familiaris [19]) was 2.2, the Acute lethal toxicity (Mus musculus) was “Partially active” and the “No. of emetic episodes” value [20] was 3.5. For the same molecule, the No. of retches [20] was 42.5 and the “No. of emetic episodes” value (Canis familiaris [21]) was 10.5.
With Cc1[nH]cnc1Cn1ccc2ccc3ccccc3c2c1=O the No. of retches (Canis familiaris [1]) was 53.8, the No. of retches [22] was 11.8 and the “No. of emetic episodes” value [23] was 1.3. The ED50 (Rattus norvegicus) was 0.3 µg/kg, the “No. of emetic episodes” value (Canis familiaris [24]) was 3.4 and the “No. of emetic episodes” value (Canis familiaris [25]) was 4.4. The “No. of emetic episodes” value (Canis familiaris [26]) was 4, the “No. of emetic episodes” value [27] was 4.8 and the “No. of emetic episodes” value (Canis familiaris [28]) was 10.2. The “No. of emetic episodes” value [29] was 10.8, the No. of retches (Canis familiaris [30]) was 143.8 and the “No. of emetic episodes” value (Canis familiaris [31]) was 10.8. The “No. of emetic episodes” value [32] was 2, the No. of retches [33] was 79 and the No. of retches [34] was 89.3. The No. of retches (Canis familiaris [35]) was 26.3, the No. of retches [36] was 31.5 and the No. of retches (Canis familiaris [37]) was 27.8. The “No. of emetic episodes” value [38] was 5, the “No. of emetic episodes” value [39] was 0 and the “No. of emetic episodes” value [40] was 0. The No. of retches (Canis familiaris [41]) was 133.2, the No. of retches [42] was 1 and the “No. of emetic episodes” value (Canis familiaris [43]) was 1.8. For the same molecule, the No. of retches [44] was 65, the No. of retches [45] was 144.5 and the No. of retches (Canis familiaris [46]) was 42.4.

Source: ChEMBL document CHEMBL1125546, “Novel 5-HT3 antagonists. Isoquinolinones and 3-aryl-2-pyridones” (J Med Chem, 1992)
